Our source for the mass density and viscosity values is the NIST ThermoML archive (doi:10.1016/j.jct.2005.08.009).

Molecules are shown by their SMILES. Numbers after ± are expanded uncertainties.

As a reminder, the mass density is the mass of a sample divided by its volume. What is called viscosity is the resistance of a fluid to flow.

The conditions of data set [1]: 101 kPa, Liquid.
Data set [2] is described as follows: xn = mol fraction of the nth substance listed. The settings on record: 101 kPa, Liquid, x2 = 0.

In the case of `CC#N` [acetonitrile], the mass density in data set [1] (298.15 K) stood at 776.69 ± 1.9 kg/m3; in data set [1] (303.15 K) it was 771.89 ± 1.9 kg/m3; in data set [1] (308.15 K), 765.46 ± 2 kg/m3; in data set [1] (313.15 K), 760.86 ± 2 kg/m3; in data set [1] (318.15 K) it was 754.76 ± 2 kg/m3. The viscosity came out at 0.3417 ± 0.0053 mPa·s in data set [1] (298.15 K); 0.328 ± 0.0051 mPa·s in data set [1] (303.15 K); 0.3129 ± 0.0049 mPa·s in data set [1] (308.15 K); 0.3009 ± 0.0048 mPa·s in data set [1] (313.15 K); 0.2899 ± 0.0047 mPa·s in data set [1] (318.15 K).

As to `O` [water] + CC#N, the viscosity in data set [2] (298.15 K) is recorded as 0.8901 ± 0.011 mPa·s; in data set [2] (303.15 K), 0.7973 ± 0.01 mPa·s; in data set [2] (308.15 K), 0.7193 ± 0.0093 mPa·s; in data set [2] (313.15 K), 0.653 ± 0.0086 mPa·s; in data set [2] (318.15 K) it was 0.5961 ± 0.008 mPa·s.
